Values of other authors, collected in patent US6472403B2, “αV integrin receptor antagonists” (Merck & Co., Inc., priority 2000, dated 2002).

System: postmenopausal osteoporotic women
Settings: median of 22 months of treatment

Q: What does the source list for `CC[C@H](C)[C@H](NC(=O)[C@H](CCC(=O)O)NC(=O)[C@H](CO)NC(=O)[C@@H](NC(=O)[C@@H](N)CO)C(C)C)C(=O)N[C@@H](CCC(N)=O)C(=O)N[C@@H](CC(C)C)C(=O)N[C@@H](CCSC)C(=O)N[C@@H](Cc1cnc[nH]1)C(=O)N[C@@H](CC(N)=O)C(=O)N[C@@H](CC(C)C)C(=O)NCC(=O)N[C@@H](CCCCN)C(=O)N[C@@H](Cc1cnc[nH]1)C(=O)N[C@@H](CC(C)C)C(=O)N[C@@H](CC(N)=O)C(=O)N[C@@H](CO)C(=O)N[C@@H](CCSC)C(=O)N[C@@H](CCC(=O)O)C(=O)N[C@@H](CCCN=C(N)N)C(=O)N[C@H](C(=O)N[C@@H](CCC(=O)O)C(=O)N[C@@H](Cc1c[nH]c2ccccc12)C(=O)N[C@@H](CC(C)C)C(=O)N[C@@H](CCCN=C(N)N)C(=O)N[C@@H](CCCCN)C(=O)N[C@@H](CCCCN)C(=O)N[C@@H](CC(C)C)C(=O)N[C@@H](CCC(N)=O)C(=O)N[C@@H](CC(=O)O)C(=O)N[C@H](C(=O)N[C@@H](Cc1cnc[nH]1)C(=O)N[C@@H](CC(N)=O)C(=O)N[C@@H](Cc1ccccc1)C(=O)O)C(C)C)C(C)C` [hPTH(1-34)]?
A: reduction in nonvertebral fractures: 54%; reduction in spine fractures: ≥ 65%
